In patent US20020016299A1, “APOPTOSIS INDUCERS” (priority 1996, published 2002):
*1 amine or outer side, *2 acyl side, *3 side chain or, on linkers, in order; H or OH if unused. Where a SMILES comes first, the peptide text is derived from it. Bridges are numbered along the chain shown (N, C = ends). Roman numbers before positions name the chains, in order. [ ]: non-standard residue; d: D form. Actinocin(9to1) = Cc1c2oc3c(C)ccc(C(=O)[*:1])c3nc-2c(C(=O)[*:2])c(N)c1=O; NMeV = CN[C@H](C(=O)O)C(C)C; Sar = CNCC(=O)O

Test system: HL-60 (ATCC CL-240)
Assay: Apoptosis inducing activity: microscope observation and living cell count of HL-60 culture
Type: cell-based
Settings: HL-60 cells; for activity of suppressing the growth of cancer cells: method of Example 1-(4)
Experimental: Apoptosis inducing activity of the above fraction B and the pure product mentioned in Example 1-(3) was measured as follows. Thus, 0.5 ml of aqueous solution of the fraction B or of said pure product was added to 2.5×10^5 cells/4.5 ml of HL-60 (ATCC CL-240) cultured in an RPMI 1640 medium containing 10% of fetal calf serum and incubated at 37° C. for 48 hours. At the same time, distilled water and an Actinomycin D solution (10 μg/ml) which was known to have an apoptosis inducing activity were added to prepare control samples. Formation of apoptic bodies, contraction of cells and aggregation of nuclei were observed by naked eye under a microscope whereby the living cell numbers were counted. When such phenomena were observed and a reduction in living cell numbers was recognized, it was decided that an apoptosis inducing activity was positive.
Each of the concentrated extracts of Lyophyllum ulmarium was diluted with a 75% or 50% aqueous solution of ethanol. The diluted solution was assayed by an MTT method mentioned in Example 7. […] Thus, it was confirmed that, under the conditions of extracting with a 75% aqueous solution of ethanol and a 50% aqueous solution of ethanol, substances which are active for suppressing the growth of cancer cells were extracted. Further, an apoptosis inducing activity was measured using those concentrated extracts of Lyophyllum ulmarium. Thus, 25 μl of each of the above-mentioned concentrated extracts was used as a sample, ethanol was evaporated therefrom, the residue was added to 2.5×10^5 HL-60 cells/4.5 ml which were incubated in an RPMI 1640 medium containing 10% of fetal calf serum and incubation was conducted at 37° C. for 48 hours. At the same time, control samples were prepared by adding distilled water and an Actinomycin D solution (10 μg/ml) which was known to have an apoptosis inducing activity. Formation of apoptic bodies, contraction of cells and aggregation of nuclei were observed by naked eye under an optical microscope and the numbers of living cells were counted. When such a phenomenon was observed and a reduction in living cell numbers was noted, the sample was judged to have an apoptosis inducing activity.

[1] = 37° C., 48 hours, apoptic bodies, contraction of cells, aggregation of nuclei and reduction in living cell numbers

| Compound | apoptosis inducing activity (Actinomycin D solution (10 μg/ml) added as control sample) | activity of suppressing the growth of cancer cells (37° C., 48 hours) | apoptosis inducing activity [1] |
| --- | --- | --- | --- |
| Cc1c2oc3c(C)ccc(C(=O)N[C@@H]4C(=O)N[C@H](C(C)C)C(=O)N5CCC[C@H]5C(=O)N(C)CC(=O)N(C)[C@@H](C(C)C)C(=O)O[C@@H]4C)c3nc-2c(C(=O)N[C@@H]2C(=O)N[C@H](C(C)C)C(=O)N3CCC[C@H]3C(=O)N(C)CC(=O)N(C)[C@@H](C(C)C)C(=O)O[C@@H]2C)c(N)c1=O [Actinomycin D, reference compound] (I: T[dV]P[Sar][NMeV] / II: T[dV]P[Sar][NMeV]; ester I:1-I:C, II:1-II:C; linker I:N-II:N via Actinocin(9to1)) | apoptosis inducing activity was confirmed |  |  |
| Monogalactosyl diglyceride |  | confirmed | strong apoptosis inducing action |
| digalactosyl diglyceride |  | confirmed | strong apoptosis inducing action |
| monogalactosyl diglyceride |  | confirmed | strong apoptosis inducing action |
